# From ChEMBL document CHEMBL1201862, “PubChem BioAssay data set” (2004)
#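 1) Cells in 96-well plates. 2) Compound, 48 h, 5 concentrations. 3) Linear interpolation between surrounding doses. 4) Unreached endpoint = highest concentration. GI50 is the concentration that inhibits growth by half.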 Activity calls are given as the source filed them. Rule as the data show it: active = GI50 up to about 1.1 µM and inactive = higher.
# How the values were obtained:
# Test in all cases: growth of human tumour cells (NCI), 48 h
# T47D = test system: T47D
# OVCAR-4 = test system: OVCAR-4
# SK-MEL-5 = test system: SK-MEL-5
# MDA-N = test system: MDA-N
# SN12C = test system: SN12C
# OVCAR-5 = test system: OVCAR-5
# SK-MEL-2 = test system: SK-MEL-2
# A498 = test system: A498
# CCRF-CEM = test system: CCRF-CEM
# OVCAR-3 = test system: OVCAR-3
# HOP-62 = test system: HOP-62
# SR = test system: SR
# UO-31 = test system: UO-31
# MCF7 = test system: MCF7
# U-251 = test system: U-251
# HL-60 = test system: HL-60
# K562 = test system: K562
# LOX IMVI = test system: LOX IMVI
# RPMI-8226 = test system: RPMI-8226
# NCI-H226 = test system: NCI-H226
structure (smiles),measurement,setting,value
CCCCCCNC(=S)N/N=C(\C)c1ccccn1,GI50,T47D,< 10 nM (active)
same,GI50,OVCAR-4,11400 nM (inactive)
same,GI50,SK-MEL-5,299 nM (active)
same,GI50,MDA-N,904 nM (active)
same,GI50,SN12C,1410 nM (inactive)
same,GI50,OVCAR-5,728 nM (active)
same,GI50,SK-MEL-2,3090 nM (inactive)
same,GI50,A498,3180 nM (inactive)
same,GI50,CCRF-CEM,< 10 nM (active)
same,GI50,OVCAR-3,< 10 nM (active)
same,GI50,HOP-62,44.5 nM (active)
same,GI50,SR,< 10 nM (active)
same,GI50,UO-31,124 nM (active)
same,GI50,MCF7,< 41.5 nM (active)
same,GI50,U-251,200 nM (active)
same,GI50,HL-60,< 10 nM (active)
same,GI50,K562,< 10 nM (active)
same,GI50,LOX IMVI,49.3 nM (active)
same,GI50,RPMI-8226,< 10 nM (active)
same,GI50,NCI-H226,138 nM (active)
